The results in this text go back to patent US20180099931A1 (AbbVie S.à.r.l., priority 2016, published 2018).

Like-named read-outs stand apart in the source and are kept apart here.

For the experiment, the target named is T1, F508delCFTR (Homo sapiens, UniProt P13569, DEL508-508).
T1 construct: expressed in transfected cells; host or cells: CFBE41o- human lung-derived epithelial cells (CFBE4lo-F508delCFTR-HRP), doxycycline-inducible
The experiment can be described thus: Cell Surface Expression-Horse Radish Peroxidase (CSE-HRP) Assay.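 On Maximum % activity (with co-corrector): co-corrector and positive control are both the same reference corrector at 2 µM.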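 On Maximum % activity (without co-corrector): percent of the 2 µM on-plate positive control corrector response above DMSO.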 Format: cell-based. The note with it: for Maximum % activity (with co-corrector) / Emax: maximum at any tested concentration, normalized to on-plate positive control; for Emax: read-out: Maximum % activity (without co-corrector). How it is done:
Cell Surface Expression-Horse Radish Peroxidase (CSE-HRP) Assay;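 on Maximum % activity (with co-corrector): co-corrector and positive control are both the same reference corrector at 2 µM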;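 on Maximum % activity (without co-corrector): percent of the 2 µM on-plate positive control corrector response above DMSO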
The development was achieved by expressing the F508delCFTR mutation along with a horseradish peroxidase (HRP) in the fourth exofacial loop, and then measuring the HRP activity using luminescence readout from these cells, CFBE4lo-F508delCFTR-HRP, that were incubated overnight with the test corrector compounds, either without or with the co-corrector. […] The test compounds were then added either without or with a co-corrector at the required concentrations and further incubated for 18-24 hours at 33° C. The highest concentration tested was 20 μM with an 8-point concentration response curve using a 3-fold dilution in both the test compound without or with the co-corrector. Three replicate plates were run to determine one EC50. All plates contained negative controls (dimethyl sulfoxide, DMSO) and positive control (2 μM of 3-[(2R,4R)-4-({[1-(2,2-difluoro-1,3-benzodioxol-5-yl)cyclopropyl]carbonyl}amino)-7-methoxy-3,4-dihydro-2H-chromen-2-yl]benzoic acid) as well as on-plate concentration response of the positive control. […] The raw counts from the experiment were analyzed using Accelrys® Assay Explorer v3.3.
1−[3*SDPositive Control+3*SDNegative Control/Absolute(MeanPositive Control−MeanNegative Control)]
wherein “SD” is standard deviation.
The % activity measured at each of the 8 test concentrations of the test compound added either without or with a co-corrector (2 μM of 3-[(2R,4R)-4-({[1-(2,2-difluoro-1,3-benzodioxol-5-yl)cyclopropyl]carbonyl}amino)-7-methoxy-3,4-dihydro-2H-chromen-2-yl]benzoic acid) was normalized to the on-plate positive control using the following formulae:
% activity(Test compound without co-corrector)=[(test compound without co-corrector response−DMSO response)/(positive control response−DMSO response)]*100
% activity(Test compound with co-corrector)=[(test compound with co-corrector response−DMSO response)/(positive control response−DMSO response)]*100
The maximum % activity achieved for the test compound either without or with a co-corrector at any tested concentration is presented in Table 4 along with the respective EC50's calculated using the following general sigmoidal curve with variable Hill slope equation (described as Model 42 in the Accelrys® Assay Explorer v3.3 software):
General sigmoidal curve with concentration, response, top, bottom, EC50 and Hill slope. This model describes a sigmoidal curve with an adjustable baseline, a. The equation can be used to fit curves where response is either increasing or decreasing with respect to the independent variable, “x”.
“x” is a concentration of drug under test. “y” is the response. “a” is the maximum response, and “d” is the minimum response “c” is the inflection point (EC50) for the curve. That is, “y” is halfway between the lower and upper asymptotes when x=c. “b” is the slope-factor or Hill coefficient. The sign of b is positive when the response increases with increasing dose and is negative when the response decreases with increasing dose (inhibition).

[1] abbreviates: test compound without co-corrector, read-out: EC50 (without co-corrector).
[2] abbreviates: with co-corrector (2 μM of 3-[(2R,4R)-4-({[1-(2,2-difluoro-1,3-benzodioxol-5-yl)cyclopropyl]carbonyl}amino)-7-methoxy-3,4-dihydro-2H-chromen-2-yl]benzoic acid), read-out: EC50 (with co-corrector).

T1 sequence (P13569 with tags, fused parts or gaps DEL508-508): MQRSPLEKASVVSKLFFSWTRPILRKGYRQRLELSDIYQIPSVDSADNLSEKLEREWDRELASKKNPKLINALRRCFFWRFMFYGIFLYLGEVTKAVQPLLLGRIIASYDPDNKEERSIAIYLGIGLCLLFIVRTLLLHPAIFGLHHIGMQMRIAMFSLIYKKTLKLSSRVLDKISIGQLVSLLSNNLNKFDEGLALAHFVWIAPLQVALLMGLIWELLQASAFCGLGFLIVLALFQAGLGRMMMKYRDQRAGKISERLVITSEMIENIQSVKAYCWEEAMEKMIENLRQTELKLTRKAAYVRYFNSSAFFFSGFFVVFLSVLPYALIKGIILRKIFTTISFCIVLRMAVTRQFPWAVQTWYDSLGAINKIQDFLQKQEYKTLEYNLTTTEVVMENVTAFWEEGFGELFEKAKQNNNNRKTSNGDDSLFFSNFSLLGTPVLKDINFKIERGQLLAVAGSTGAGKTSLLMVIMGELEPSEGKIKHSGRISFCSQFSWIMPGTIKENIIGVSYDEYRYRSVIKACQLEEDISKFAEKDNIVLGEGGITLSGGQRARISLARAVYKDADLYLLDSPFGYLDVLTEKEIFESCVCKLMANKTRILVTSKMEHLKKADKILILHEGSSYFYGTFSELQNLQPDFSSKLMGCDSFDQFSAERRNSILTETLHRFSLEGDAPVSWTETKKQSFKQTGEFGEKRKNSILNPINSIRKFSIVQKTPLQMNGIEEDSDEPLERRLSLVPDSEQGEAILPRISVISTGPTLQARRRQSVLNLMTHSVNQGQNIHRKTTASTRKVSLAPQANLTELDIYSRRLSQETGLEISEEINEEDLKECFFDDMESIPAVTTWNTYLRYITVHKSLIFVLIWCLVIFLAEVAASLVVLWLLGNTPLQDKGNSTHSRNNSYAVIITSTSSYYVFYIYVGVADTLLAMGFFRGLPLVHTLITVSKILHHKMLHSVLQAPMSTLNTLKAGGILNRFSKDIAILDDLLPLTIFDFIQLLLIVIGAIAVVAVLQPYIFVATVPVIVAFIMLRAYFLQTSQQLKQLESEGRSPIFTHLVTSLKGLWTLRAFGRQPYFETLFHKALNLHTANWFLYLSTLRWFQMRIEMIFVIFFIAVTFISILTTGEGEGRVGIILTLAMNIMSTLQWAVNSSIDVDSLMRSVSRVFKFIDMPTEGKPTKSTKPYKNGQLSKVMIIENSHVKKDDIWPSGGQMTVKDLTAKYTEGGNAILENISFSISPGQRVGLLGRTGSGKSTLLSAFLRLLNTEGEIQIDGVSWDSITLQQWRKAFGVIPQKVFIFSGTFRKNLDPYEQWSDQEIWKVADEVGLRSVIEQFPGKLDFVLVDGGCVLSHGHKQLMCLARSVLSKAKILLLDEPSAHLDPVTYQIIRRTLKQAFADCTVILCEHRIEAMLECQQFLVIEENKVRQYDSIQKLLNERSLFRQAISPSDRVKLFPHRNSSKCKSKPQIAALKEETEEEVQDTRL

Consider `Cc1cc(C(F)(F)F)cc(N[C@H]2[C@@H](c3ccccc3)N(C(=O)C3CCCCC3)[C@@H](C(=O)O)C23CC3)n1` (racemic) [Example I-17], for which the EC50 (in general, the concentration at which the effect is half-maximal) lay within 1 to 10 µM under setting [1] and 1 to 10 µM under setting [2]. For the setting “with co-corrector (2 μM)”, the “Maximum % activity (with co-corrector)” value is “++ (≥150 and <350)”. In addition, the Emax (without co-corrector) was less than 100%.

Take `COc1cccc([C@@H]2[C@H](NCc3ccccc3OC(F)F)[C@@H](C(C)(C)C)[C@H](C(=O)O)N2C(=O)C2CCCCO2)n1` (mixture of isomers) [Example I-18]: the EC50 was in the range of 1 to 10 µM under setting [1] and 1 to 10 µM under setting [2]. The “Maximum % activity (with co-corrector)” value (with co-corrector (2 μM)) is recorded as “+++ (≥350)”. The Emax (without co-corrector) was less than 100%.

As for `COc1cccc([C@@H]2[C@H](NCc3cc(C(F)(F)F)ccc3OC)[C@@H](C(C)(C)C)[C@H](C(=O)O)N2C(=O)C2CCCCC2)n1` (racemic) [Example I-19], the EC50 fell in the range of 1 to 10 µM under setting [1] and 1 to 10 µM under setting [2]. For the setting “with co-corrector (2 μM)”, the “Maximum % activity (with co-corrector)” value is given as “+++ (≥350)”. In addition, the Emax (without co-corrector) lay in the range of 100 to 200%.

For the compound `CC(C)(C)[C@@H]1[C@@H](Nc2cccc(OC(F)F)n2)[C@@H](c2ccccc2)N(C(=O)C2CCCCC2)[C@H]1C(=O)O` (racemic) [Example I-21], the EC50 by setting is: under setting [1], 1 to 10 µM; under setting [2], 1 to 10 µM. In addition, the “Maximum % activity (with co-corrector)” value (with co-corrector (2 μM)) is reported as “+++ (≥350)”. Moreover, the Emax (without co-corrector) is less than 100%.

With `COc1ccc(C(F)(F)F)cc1CN[C@@H]1[C@@H](C(C)(C)C)[C@H](C(=O)O)N(C(=O)C2CCCCC2)[C@@H]1c1ccccc1N(C)C` (racemic) [Example I-22], the EC50 reads like this: under setting [1], 1 to 10 µM; under setting [2], less than 1 µM. Besides, the “Maximum % activity (with co-corrector)” value (with co-corrector (2 μM)) is reported as “+++ (≥350)”. Also, the Emax (without co-corrector) was more than 200%.

Turning to `COc1cccc([C@@H]2[C@H](NCc3cc(C(F)(F)F)ccc3OC)[C@@H](C(C)(C)C)[C@H](C(=O)O)N2C(=O)C2CCCCO2)n1` (mixture of isomers) [Example I-23], the 50% effective concentration (EC50) lay within 1 to 10 µM under setting [1] and 1 to 10 µM under setting [2]. For the same compound, the “Maximum % activity (with co-corrector)” value (with co-corrector (2 μM)) was “+++ (≥350)”. The Emax (without co-corrector) was less than 100%.

For the compound `COc1cc(C(F)(F)F)ccc1CN[C@@H]1[C@@H](C(C)(C)C)[C@H](C(=O)O)N(C(=O)C2C3COCC32)[C@@H]1c1ccccc1N(C)C` (mixture of isomers) [Example I-24], the half-maximal effective concentration (EC50) runs as follows: under setting [1], 1 to 10 µM; under setting [2], 1 to 10 µM. Moreover, the “Maximum % activity (with co-corrector)” value (with co-corrector (2 μM)) was “+++ (≥350)”. In addition, where the note is “without co-corrector”, the Emax is more than 200%.

As for `COc1cc(C(F)(F)F)ccc1CN[C@@H]1[C@@H](C(C)(C)C)[C@H](C(=O)O)N(C(=O)C2CCCCO2)[C@@H]1c1ccccc1N(C)C` (mixture of isomers) [Example I-25], the EC50 reads like this: under setting [1], 1 to 10 µM; under setting [2], less than 1 µM. Besides, the “Maximum % activity (with co-corrector)” value (with co-corrector (2 μM)) was “+++ (≥350)”. In addition, for the setting “without co-corrector”, the Emax was more than 200%.

As to `COC(=O)N1CCC[C@@H](C(=O)N2[C@H](c3ccccc3)[C@H](Nc3cc(C(F)(F)F)cc(C)n3)[C@@H](C(C)(C)C)[C@@H]2C(=O)O)C1` (racemic) [Example I-27], the EC50 by setting is: under setting [1], 1 to 10 µM; under setting [2], 1 to 10 µM. Under “with co-corrector (2 μM)”, the “Maximum % activity (with co-corrector)” value is listed as “+++ (≥350)”. Under “without co-corrector”, the Emax was more than 200%.

For `COc1cc(C(F)(F)F)ccc1CN[C@@H]1[C@@H](C(C)(C)C)[C@H](C(=O)O)N(C(=O)OC(C)C)[C@@H]1c1cccnc1N(C)C` (racemic) [Example I-28], the EC50 is, setting by setting: under setting [1], 1 to 10 µM; under setting [2], 1 to 10 µM. The “Maximum % activity (with co-corrector)” value (with co-corrector (2 μM)) is recorded as “+++ (≥350)”. In addition, the Emax (without co-corrector) is more than 200%.

Turning to `COc1ccc(C(F)(F)F)cc1CN[C@@H]1[C@@H](C(C)(C)C)[C@H](C(=O)O)N(C(=O)OC(C)C)[C@@H]1c1cccnc1N(C)C` (racemic) [Example I-29], the 50% effective concentration (EC50) by setting is: under setting [1], 1 to 10 µM; under setting [2], 1 to 10 µM. Also, the “Maximum % activity (with co-corrector)” value (with co-corrector (2 μM)) is “+++ (≥350)”. The Emax (without co-corrector) is more than 200%.

Take `COc1ccc(S(C)(=O)=O)cc1CN[C@@H]1[C@@H](C(C)(C)C)[C@H](C(=O)O)N(C(=O)C2CCCCC2)[C@@H]1c1ccccc1` (racemic) [Example I-30]: the EC50 reads like this: under setting [1], more than 10 µM; under setting [2], more than 10 µM. Moreover, the “Maximum % activity (with co-corrector)” value (with co-corrector (2 μM)) was “+ (<150)”. In addition, the Emax (without co-corrector) is less than 100%.

In the case of `CO[C@@H]1CCC[C@@H](C(=O)N2[C@H](c3ccccc3)[C@H](Nc3cc(C(F)(F)F)cc(C)n3)[C@@H](C(C)(C)C)[C@@H]2C(=O)O)C1` (racemic) [Example I-31], the EC50 lay within 1 to 10 µM under setting [1] and 1 to 10 µM under setting [2]. Further, the “Maximum % activity (with co-corrector)” value (with co-corrector (2 μM)) was “+++ (≥350)”. Moreover, the Emax (without co-corrector) was less than 100%.

Turning to `CC(C)c1ccccc1CN[C@@H]1[C@@H](C(C)(C)C)[C@H](C(=O)O)N(C(=O)C2CCCCC2)[C@@H]1c1ccccc1` (racemic) [Example I-35], the EC50 by setting is: under setting [1], less than 1 µM; under setting [2], less than 1 µM. Also, where the note is “with co-corrector (2 μM)”, the “Maximum % activity (with co-corrector)” value was “+++ (≥350)”. For the same compound, the Emax (without co-corrector) was less than 100%.

For `COc1ncc(Cl)cc1CN[C@@H]1[C@@H](C(C)(C)C)[C@H](C(=O)O)N(C(=O)C2CCCCC2)[C@@H]1c1ccccc1` (racemic) [Example I-36], the EC50 is, setting by setting: under setting [1], 1 to 10 µM; under setting [2], 1 to 10 µM. Besides, the “Maximum % activity (with co-corrector)” value (with co-corrector (2 μM)) is reported as “+++ (≥350)”. Where the note is “without co-corrector”, the Emax lay in the range of 100 to 200%.

Take `Cc1cc(C(F)(F)F)cc(N[C@@H]2[C@@H](C(C)(C)C)[C@H](C(=O)O)N(C(=O)C3CCC4(CC3)CC4)[C@@H]2c2ccccc2)n1` (racemic) [Example I-37]: the EC50 was more than 10 µM under setting [1] and 1 to 10 µM under setting [2]. Besides, where the note is “with co-corrector (2 μM)”, the “Maximum % activity (with co-corrector)” value was “++ (≥150 and <350)”. Moreover, the Emax (without co-corrector) was less than 100%.

For the compound `COc1cc(C(F)(F)F)cc(N[C@@H]2[C@@H](C(C)(C)OC)[C@H](C(=O)O)N(C(=O)C3CCCCC3)[C@@H]2c2ccccc2)n1` (racemic) [Example I-38], the concentration for a half-maximal effect (EC50) lay within 1 to 10 µM under setting [1] and 1 to 10 µM under setting [2]. The “Maximum % activity (with co-corrector)” value (with co-corrector (2 μM)) was “++ (≥150 and <350)”. Besides, the Emax (without co-corrector) is less than 100%.

In the case of `COc1ccc(Cl)cc1CN[C@H]1[C@H](C(C)(C)C)[C@@H](C(=O)O)N(C(=O)C2CCCCC2)[C@H]1c1ncccc1OC` (racemic) [Example I-40], the EC50 by setting is: under setting [1], more than 10 µM; under setting [2], more than 10 µM. In addition, the “Maximum % activity (with co-corrector)” value (with co-corrector (2 μM)) was “+ (<150)”. Moreover, the Emax (without co-corrector) was less than 100%.

With `COc1ccc(C(F)(F)F)cc1CN[C@@H]1[C@@H](C(C)(C)C)[C@H](C(=O)O)N(C(=O)C(C)(C)OC)[C@@H]1c1ccccc1` (racemic) [Example I-41], the EC50 reads like this: under setting [1], more than 10 µM; under setting [2], 1 to 10 µM. The “Maximum % activity (with co-corrector)” value (with co-corrector (2 μM)) is “++ (≥150 and <350)”. For the same compound, the Emax (without co-corrector) is less than 100%.

On to `COc1ccc(C(C)(C)C)cc1CN[C@H]1[C@H](C(C)(C)C)[C@@](C)(C(=O)O)N(C(=O)C2CCCCC2)[C@H]1c1ccccc1` (racemic) [Example I-211], for which the half-maximal effective concentration (EC50) is, setting by setting: under setting [1], more than 10 µM; under setting [2], 1 to 10 µM. Besides, for the setting “with co-corrector (2 μM)”, the “Maximum % activity (with co-corrector)” value is reported as “+ (<150)”. Further, the Emax (without co-corrector) is less than 100%.

Take `COCCS(=O)(=O)NC(=O)[C@H]1[C@H](C(C)(C)C)[C@@H](Nc2cc(C(F)(F)F)cc(C)n2)[C@@H](c2ccccc2)N1C(=O)C1CCCCC1` (racemic) [Example III-49, rac-(2R,3R,4R,5R)-3-(tert-butyl)-1-(cyclohexanecarbonyl)-N-((2-methoxyethyl)sulfonyl)-4-((6-methyl-4-(trifluoromethyl)pyridin-2-yl)amino)-5-phenylpyrrolidine-2-carboxamide]: the Emax (test compound without co-corrector) was less than 100%. In addition, the half-maximal effective concentration (EC50) by setting is: under setting [1], more than 10 µM; under setting [2], 1 to 10 µM. In addition, where the note is “with co-corrector (2 μM of 3-[(2R,4R)-4-({[1-(2,2-difluoro-1,3-benzodioxol-5-yl)cyclopropyl]carbonyl}amino)-7-methoxy-3,4-dihydro-2H-chromen-2-yl]benzoic acid)”, the “Maximum % activity (with co-corrector)” value is “++ (≥150 and <350)”.
